Measured values from US8168625B2, “Pharmaceutical composition based on agonist of benzodiazepine” (Sigma Pharma Ltda., priority 2003, dated 2012).
Like-named read-outs stand apart in the source and are kept apart here.

Tests used:
[1] = Bioavailability after single dose: sublingual tablets (Examples I-III) versus conventional oral tablets, crossed randomized studies; settings: for AUC(0-inf) / AUC(0-t) / Cmax / Tmax / concentration / concentration at 0 min / concentration at 20 min / concentration at 40 min / concentration at 1 h / concentration at 2 h / concentration at 2.5 h / concentration at 4 h / concentration at 6 h / concentration at 8 h / concentration at 10 h / concentration at 12 h / concentration at 24 h: male, human, plasma; for AUC and Cmax, sublingual versus oral: sublingual versus conventional oral tablets
Experimental: Three studies were carried out, each of them with eight healthy volunteers of the male sex, recruited after information on the nature and characteristics of the principles included in the scope of the study. Each study, composed of two periods of treatment, was carried out according to a crossed and randomized scheme. All individuals received the previously established dose of the active ingredient in the form of conventional oral tablets and sublingual tablets, with a period of detoxication of, at least, seven days between the first and the following administration, according to a previously established randomized list. The sublingual tablets were placed under the tongue until complete dissolution, in correspondence with the venous plexus, while the conventional oral tablets were swallowed unbroken with 150 ml of mineral water. Within the intervals of 0-20-40 minutes, 1-1,5-2-2,5-3-3,5-4-6-8-10-[…] and 24 hours after the treatment, 5 ml of blood were collected.

[2] = cited from earlier work; for plasmatic concentration peak: 2 mg tablets

Row | SMILES | AUC(0-inf) [1] | AUC(0-t) [1] | Cmax [1] | Tmax [1] | concentration ([1]; other: sublingual) | concentration at 0 min ([1]; other: sublingual) | concentration at 20 min ([1]; other: sublingual) | concentration at 40 min ([1]; other: sublingual) | concentration at 1 h ([1]; other: sublingual) | concentration at 2 h ([1]; other: sublingual) | concentration at 2.5 h ([1]; other: sublingual) | concentration at 4 h ([1]; other: sublingual) | concentration at 6 h ([1]; other: sublingual) | concentration at 8 h ([1]; other: sublingual) | concentration at 10 h ([1]; other: sublingual) | concentration at 12 h ([1]; other: sublingual) | concentration at 24 h ([1]; other: sublingual) | Tmax ([1]; other: sublingual versus oral) | AUC(0-inf) ([1]; po) | AUC(0-t) ([1]; po) | further results
1 | CN1C(=O)CN=C(c2ccccc2)c2cc(Cl)ccc21 [DIAZEPAM, diazepam] | – | – | – | – | – | – | – | – | – | – | – | – | – | – | – | – | – | – | – | – | hematological rates after sublingual administration in relation to oral administration ([1]; first hour): definitely higher
2 | O=C1CN=C(c2ccccn2)c2cc(Br)ccc2N1 [BROMAZEPAN, bromazepam] | 1900 ± 326 ng·h/mL | 1160 ± 102 ng·h/mL | 120 ± 12.1 ng/mL | 45 ± 9 min | 67.9 ± 6.1 ng/mL | 0 ng/mL | 80.8 ± 11.3 ng/mL | 109 ± 22.1 ng/mL | 110 ± 15.2 ng/mL | 84 ± 5.7 ng/mL | 74.2 ± 5.7 ng/mL | 63.4 ± 5.5 ng/mL | 57.1 ± 5 ng/mL | 49.4 ± 7 ng/mL | 44.8 ± 6.2 ng/mL | 38.8 ± 5.6 ng/mL | 33.5 ± 6.1 ng/mL | ~30 min | 1760 ± 223 ng·h/mL | 1130 ± 60.2 ng·h/mL | Cmax ([1]; po): 125 ± 9.81 ng/mL; Tmax ([1]; po): 75 ± 22.8 min; concentration ([1]; po): 70.2 ± 6.8 ng/mL; concentration at 20 min ([1]; po): 69 ± 10.1 ng/mL; concentration at 40 min ([1]; po): 91.7 ± 5.6 ng/mL; concentration at 1 h ([1]; po): 117 ± 14.9 ng/mL; concentration at 2 h ([1]; po): 91.6 ± 9.7 ng/mL; concentration at 2.5 h ([1]; po): 77.2 ± 5.9 ng/mL; concentration at 4 h ([1]; po): 63.1 ± 6.9 ng/mL; concentration at 6 h ([1]; po): 53.4 ± 4.8 ng/mL; concentration at 8 h ([1]; po): 49.1 ± 4.4 ng/mL; concentration at 10 h ([1]; po): 42.7 ± 3.1 ng/mL; concentration at 12 h ([1]; po): 37.9 ± 3 ng/mL; concentration at 24 h ([1]; po): 30.2 ± 3.8 ng/mL; AUC and Cmax, sublingual versus oral [1]: comparable
3 | O=C1Nc2ccc(Cl)cc2C(c2ccccc2Cl)=NC1O (stereo not drawn) [LORAZEPAM, lorazepam] | 621 ± 70.1 ng·h/mL | 452 ± 53 ng·h/mL | 56.9 ± 8.41 ng/mL | 42.6 ± 720 min | 28.3 ± 4.2 ng/mL | 0 ng/mL | 44.5 ± 5.9 ng/mL | 56.5 ± 8.5 ng/mL | 47.9 ± 8.5 ng/mL | 37.2 ± 7.7 ng/mL | 32.2 ± 4.4 ng/mL | 25.6 ± 5 ng/mL | 22.8 ± 4.61 ng/mL | 9.6 ± 3.7 ng/mL | 17.6 ± 2.6 ng/mL | 14.5 ± 2.3 ng/mL | 10.3 ± 1.1 ng/mL | ~30 min | 656 ± 143 ng·h/mL | 454 ± 74.1 ng·h/mL | Cmax ([1]; po): 54.4 ± 4.98 ng/mL; Tmax ([1]; po): 91.2 ± 29.4 min; concentration ([1]; po): 33.4 ± 10.3 ng/mL; concentration at 0 min ([1]; po): 0 ng/mL; concentration at 20 min ([1]; po): 30.8 ± 9.4 ng/mL; concentration at 40 min ([1]; po): 41 ± 10.4 ng/mL; concentration at 1 h ([1]; po): 46.1 ± 7.9 ng/mL; concentration at 2 h ([1]; po): 47.3 ± 9.1 ng/mL; concentration at 2.5 h ([1]; po): 39 ± 10.2 ng/mL; concentration at 4 h ([1]; po): 28.2 ± 8.4 ng/mL; concentration at 6 h ([1]; po): 22.6 ± 5.7 ng/mL; concentration at 8 h ([1]; po): 19.6 ± 4.8 ng/mL; concentration at 10 h ([1]; po): 16.6 ± 3.5 ng/mL; concentration at 12 h ([1]; po): 13.5 ± 2.3 ng/mL; concentration at 24 h ([1]; po): 10.6 ± 1.7 ng/mL; AUC and Cmax, sublingual versus oral [1]: comparable; plasmatic concentration peak ([2]; after oral administration): ~17 ng/mL; plasmatic concentration peak ([2]; after sublingual administration): about 25 ng/ml; absorption of sublingual formulation compared to oral tablets and intramuscular formulation ([2]; during the first 60 minutes, 2 mg): higher
